{
  "source": "patent US9562085B2",
  "about": "“Antimicrobial peptide” (priority 2013, dated 2017)",
  "note": "Non-standard residues stand in square brackets, D forms with d. Residues, ends and D or L forms follow the SMILES beside them.",
  "data": [
    {"system": "S. aureus JAR", "format": "cell-based", "conditions": "JAR, 2 h", "description": "S. aureus JAR is described in Campoccia et al. (Int. J. Artif. Organs, 2008 September; 31(9):841-7).\nFor the in vitro killing assay with P10 variants, S. aureus JAR ([…] CFU/ml) were incubated for 2 hours at 37° C. with various concentrations of the peptides in PBS or in PBS/human plasma (1/1, v/v). […] The LC99.9 is the average value of two independent experiments.", "units": {"LC99.9 (μM) (50% plasma)": "µM", "LC99.9 (μM) (PBS)": "µM"}, "values": [
      {"smiles": "CC[C@H](C)[C@H](NC(=O)[C@H](CCCCN)NC(=O)[C@H](CCCCN)NC(=O)[C@H](Cc1ccc(O)cc1)NC(=O)[C@H](CCC(=O)O)NC(=O)[C@H](CCCNC(=N)N)NC(=O)[C@H](C)NC(=O)[C@H](CC(C)C)NC(C)=O)C(=O)N[C@H](C(=O)N[C@@H](CCC(=O)O)C(=O)N[C@@H](CCCCN)C(=O)N[C@@H](CC(C)C)C(=O)N[C@@H](CCCCN)C(=O)N[C@@H](CCCNC(=N)N)C(=O)N[C@@H](Cc1c[nH]c2ccccc12)C(=O)N[C@H](CC(C)C)C(=O)N[C@@H](CCCNC(=N)N)C(=O)N[C@@H](CCC(N)=O)C(=O)N[C@H](C(=O)N[C@@H](CC(C)C)C(=O)N[C@@H](CCCNC(=N)N)C(=O)N[C@H](C(=O)N[C@@H](CC(C)C)C(=O)N[C@@H](CCCNC(=N)N)C(N)=O)[C@@H](C)O)C(C)C)C(C)C", "note": "[Peptide 1301-16, JLAREYKKIVEKLKRWlRQVLRTLRB] (Ac-LAREYKKIVEKLKRW[dL]RQVLRTLR-NH2)", "LC99.9 (μM) (50% plasma)": 38.4, "LC99.9 (μM) (PBS)": 0.6},
      {"smiles": "CC[C@H](C)[C@H](NC(=O)[C@H](CCCCN)NC(=O)[C@H](CCCCN)NC(=O)[C@H](Cc1ccc(O)cc1)NC(=O)[C@H](CCC(=O)O)NC(=O)[C@H](CCCNC(=N)N)NC(=O)[C@H](C)NC(=O)[C@H](CC(C)C)NC(C)=O)C(=O)N[C@H](C(=O)N[C@@H](CCC(=O)O)C(=O)N[C@@H](CCCCN)C(=O)N[C@@H](CC(C)C)C(=O)N[C@@H](CCCCN)C(=O)N[C@@H](CCCNC(=N)N)C(=O)N[C@@H](Cc1c[nH]c2ccccc12)C(=O)N[C@@H](CC(C)C)C(=O)N[C@H](CCCNC(=N)N)C(=O)N[C@@H](CCC(N)=O)C(=O)N[C@H](C(=O)N[C@@H](CC(C)C)C(=O)N[C@@H](CCCNC(=N)N)C(=O)N[C@H](C(=O)N[C@@H](CC(C)C)C(=O)N[C@@H](CCCNC(=N)N)C(N)=O)[C@@H](C)O)C(C)C)C(C)C", "note": "[Peptide 1301-17, JLAREYKKIVEKLKRWLrQVLRTLRB] (Ac-LAREYKKIVEKLKRWL[dR]QVLRTLR-NH2)", "LC99.9 (μM) (50% plasma)": 38.4, "LC99.9 (μM) (PBS)": 0.6},
      {"smiles": "CC[C@H](C)[C@H](NC(=O)[C@H](CCCCN)NC(=O)[C@H](CCCCN)NC(=O)[C@H](Cc1ccc(O)cc1)NC(=O)[C@H](CCC(=O)O)NC(=O)[C@H](CCCNC(=N)N)NC(=O)[C@H](C)NC(=O)[C@H](CC(C)C)NC(C)=O)C(=O)N[C@H](C(=O)N[C@@H](CCC(=O)O)C(=O)N[C@@H](CCCCN)C(=O)N[C@@H](CC(C)C)C(=O)N[C@@H](CCCCN)C(=O)N[C@@H](CCCNC(=N)N)C(=O)N[C@@H](Cc1c[nH]c2ccccc12)C(=O)N[C@@H](CC(C)C)C(=O)N[C@@H](CCCNC(=N)N)C(=O)N[C@H](CCC(N)=O)C(=O)N[C@H](C(=O)N[C@@H](CC(C)C)C(=O)N[C@@H](CCCNC(=N)N)C(=O)N[C@H](C(=O)N[C@@H](CC(C)C)C(=O)N[C@@H](CCCNC(=N)N)C(N)=O)[C@@H](C)O)C(C)C)C(C)C", "note": "[Peptide 1301-18, JLAREYKKIVEKLKRWLRqVLRTLRB] (Ac-LAREYKKIVEKLKRWLR[dQ]VLRTLR-NH2)", "LC99.9 (μM) (50% plasma)": 38.4, "LC99.9 (μM) (PBS)": 0.6},
      {"smiles": "CC[C@H](C)[C@H](NC(=O)[C@H](CCCCN)NC(=O)[C@H](CCCCN)NC(=O)[C@H](Cc1ccc(O)cc1)NC(=O)[C@H](CCC(=O)O)NC(=O)[C@H](CCCNC(=N)N)NC(=O)[C@H](C)NC(=O)[C@H](CC(C)C)NC(C)=O)C(=O)N[C@H](C(=O)N[C@@H](CCC(=O)O)C(=O)N[C@@H](CCCCN)C(=O)N[C@@H](CC(C)C)C(=O)N[C@@H](CCCCN)C(=O)N[C@@H](CCCNC(=N)N)C(=O)N[C@@H](Cc1c[nH]c2ccccc12)C(=O)N[C@@H](CC(C)C)C(=O)N[C@@H](CCCNC(=N)N)C(=O)N[C@@H](CCC(N)=O)C(=O)N[C@@H](C(=O)N[C@@H](CC(C)C)C(=O)N[C@@H](CCCNC(=N)N)C(=O)N[C@H](C(=O)N[C@@H](CC(C)C)C(=O)N[C@@H](CCCNC(=N)N)C(N)=O)[C@@H](C)O)C(C)C)C(C)C", "note": "[Peptide 1301-19, JLAREYKKIVEKLKRWLRQvLRTLRB] (Ac-LAREYKKIVEKLKRWLRQ[dV]LRTLR-NH2)", "LC99.9 (μM) (50% plasma)": 32.0, "LC99.9 (μM) (PBS)": 0.6}
    ]}
  ]
}
